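Following 48 hours of exposure in 96-well plates, responses at five concentrations were used to interpolate endpoints linearly. Abbreviation: GI50, concentration required for 50% inhibition of growth. TGI: concentration producing complete growth inhibition.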
How the values were obtained:
Assay in all cases: NCI-60 cell line screen, 48 h
[1] = system: RXF 393 renal
[2] = system: EKVX NSCLC
[3] = system: T-47D breast
[4] = system: U251 CNS
[5] = system: SK-MEL-28 melanoma
[6] = system: KM12 colon
[7] = system: MOLT-4 leukemia
[8] = system: CAKI-1 renal
[9] = system: SF-539 CNS
[10] = system: SF-268 CNS
[11] = system: SNB-75 CNS
[12] = system: SK-OV-3 ovarian
[13] = system: ACHN renal
[14] = system: MCF7 breast
[15] = system: UO-31 renal
[16] = system: NCI-H460 lung
[17] = system: 786-0 renal
[18] = system: BT-549 breast
[19] = system: RPMI-8226 leukemia
[20] = system: K-562 leukemia
[21] = system: M14 melanoma
[22] = system: COLO 205 colon
[23] = system: UACC-257 melanoma
[24] = system: MALME-3M melanoma
[25] = system: HL-60(TB) leukemia
[26] = system: A549 NSCLC
[27] = system: HOP-62 NSCLC
[28] = system: TK-10 renal
[29] = system: NCI/ADR-RES ovarian
[30] = system: MDA-MB-231 breast
[31] = system: OVCAR-4 ovarian
[32] = system: HCT-116 colon
[33] = system: NCI-H23 lung
[34] = system: PC-3 prostate
[35] = system: MDA-MB-435
[36] = system: CCRF-CEM leukemia
[37] = system: HOP-92 NSCLC
[38] = system: HCT-15 colon
[39] = system: SNB-19 CNS
[40] = system: HCC-2998 colon
[41] = system: NCI-H522 lung
[42] = system: HS 578T breast
[43] = system: SK-MEL-2 melanoma
[44] = system: OVCAR-8 ovarian
[45] = system: OVCAR-5 ovarian
[46] = system: SN12C renal
[47] = system: NCI-H226 lung
[48] = system: HT29 colon
[49] = system: SW-620 colon
[50] = system: IGROV1 ovarian
[51] = system: UACC-62 melanoma
[52] = system: SR leukemia
[53] = system: SK-MEL-5 melanoma

Q: With `C=CC1CC12C(=O)C1OC2(C)C2C(=O)c3c(ccc4c3ccc3ccccc34)C(=O)C12` (centres undefined) as the compound, how does the GI50 [1] read?
A: 25 µM

Q: What about the TGI [1] of the same compound?
A: 83 µM

Q: And the GI50 [2]?
A: 78.6 µM

Q: What about the TGI [2] of the same compound?
A: > 100 µM

Q: And the GI50 [3]?
A: 19.7 µM

Q: And the TGI [3]?
A: > 100 µM

Q: What about the GI50 [4] of the same compound?
A: 26.7 µM

Q: And the TGI [4]?
A: 87.6 µM

Q: What about the GI50 [5] of the same compound?
A: 65.3 µM

Q: And the TGI [5]?
A: > 100 µM

Q: And the GI50 [6]?
A: 13.1 µM

Q: And the TGI [6]?
A: > 100 µM

Q: And the GI50 [7]?
A: 30.8 µM

Q: What about the TGI [7] of the same compound?
A: > 100 µM

Q: What about the GI50 [8] of the same compound?
A: 19.1 µM

Q: And the TGI [8]?
A: 58.6 µM

Q: And the GI50 [9]?
A: 47.2 µM

Q: And the TGI [9]?
A: > 100 µM

Q: And the GI50 [10]?
A: 36.2 µM

Q: And the TGI [10]?
A: > 100 µM

Q: What about the GI50 [11] of the same compound?
A: > 100 µM

Q: What about the TGI [11] of the same compound?
A: > 100 µM

Q: And the GI50 [12]?
A: > 100 µM

Q: And the TGI [12]?
A: > 100 µM

Q: And the GI50 [13]?
A: 27.5 µM

Q: And the TGI [13]?
A: 88.1 µM

Q: What about the GI50 [14] of the same compound?
A: 34.2 µM

Q: What about the TGI [14] of the same compound?
A: > 100 µM

Q: And the GI50 [15]?
A: > 100 µM

Q: What about the TGI [15] of the same compound?
A: > 100 µM

Q: What about the GI50 [16] of the same compound?
A: 37.1 µM

Q: And the TGI [16]?
A: > 100 µM

Q: And the GI50 [17]?
A: 38.8 µM

Q: What about the TGI [17] of the same compound?
A: > 100 µM

Q: And the GI50 [18]?
A: 58.9 µM

Q: And the TGI [18]?
A: > 100 µM

Q: What about the GI50 [19] of the same compound?
A: 12 µM

Q: And the TGI [19]?
A: > 100 µM

Q: What about the GI50 [20] of the same compound?
A: 26.1 µM

Q: What about the TGI [20] of the same compound?
A: > 100 µM

Q: And the GI50 [21]?
A: 67.3 µM

Q: What about the TGI [21] of the same compound?
A: > 100 µM

Q: What about the GI50 [22] of the same compound?
A: 51 µM

Q: And the TGI [22]?
A: > 100 µM

Q: What about the GI50 [23] of the same compound?
A: 89.4 µM

Q: What about the TGI [23] of the same compound?
A: > 100 µM

Q: What about the GI50 [24] of the same compound?
A: 16.8 µM

Q: What about the TGI [24] of the same compound?
A: > 100 µM

Q: And the GI50 [25]?
A: 31 µM

Q: And the TGI [25]?
A: > 100 µM

Q: And the GI50 [26]?
A: 95.2 µM

Q: And the TGI [26]?
A: > 100 µM

Q: And the GI50 [27]?
A: > 100 µM

Q: And the TGI [27]?
A: > 100 µM

Q: What about the GI50 [28] of the same compound?
A: 52.9 µM

Q: What about the TGI [28] of the same compound?
A: > 100 µM

Q: What about the GI50 [29] of the same compound?
A: 74.9 µM

Q: What about the TGI [29] of the same compound?
A: > 100 µM

Q: And the GI50 [30]?
A: 39.1 µM

Q: And the TGI [30]?
A: > 100 µM

Q: What about the GI50 [31] of the same compound?
A: > 100 µM

Q: And the TGI [31]?
A: > 100 µM

Q: And the GI50 [32]?
A: 52.6 µM

Q: And the TGI [32]?
A: > 100 µM

Q: What about the GI50 [33] of the same compound?
A: 37.3 µM

Q: And the TGI [33]?
A: > 100 µM

Q: What about the GI50 [34] of the same compound?
A: 35.6 µM

Q: What about the TGI [34] of the same compound?
A: > 100 µM

Q: And the GI50 [35]?
A: 41.4 µM

Q: And the TGI [35]?
A: > 100 µM

Q: What about the GI50 [36] of the same compound?
A: 17.1 µM

Q: And the TGI [36]?
A: > 100 µM

Q: What about the GI50 [37] of the same compound?
A: 34.4 µM

Q: And the TGI [37]?
A: > 100 µM

Q: And the GI50 [38]?
A: 14.2 µM

Q: What about the TGI [38] of the same compound?
A: 80.6 µM

Q: And the GI50 [39]?
A: > 100 µM

Q: And the TGI [39]?
A: > 100 µM

Q: And the GI50 [40]?
A: 94.6 µM

Q: What about the TGI [40] of the same compound?
A: > 100 µM

Q: And the GI50 [41]?
A: > 100 µM

Q: And the TGI [41]?
A: > 100 µM

Q: And the GI50 [42]?
A: 68.1 µM

Q: What about the TGI [42] of the same compound?
A: > 100 µM

Q: What about the GI50 [43] of the same compound?
A: > 100 µM

Q: And the TGI [43]?
A: > 100 µM

Q: And the GI50 [44]?
A: 64.6 µM

Q: What about the TGI [44] of the same compound?
A: > 100 µM

Q: And the GI50 [45]?
A: > 100 µM

Q: What about the TGI [45] of the same compound?
A: > 100 µM

Q: And the GI50 [46]?
A: 64.3 µM

Q: What about the TGI [46] of the same compound?
A: > 100 µM

Q: What about the GI50 [47] of the same compound?
A: 54.1 µM

Q: What about the TGI [47] of the same compound?
A: > 100 µM

Q: What about the GI50 [48] of the same compound?
A: 91.6 µM

Q: What about the TGI [48] of the same compound?
A: > 100 µM

Q: `O=C1c2ccccc2-c2nnc(-c3ccccc3)cc21` was tested. Which TGI [49] did it give?
A: > 10 µM

Q: What about the TGI [1] of the same compound?
A: > 10 µM

Q: And the TGI [3]?
A: > 10 µM

Q: What about the TGI [4] of the same compound?
A: > 10 µM

Q: And the TGI [5]?
A: > 10 µM

Q: What about the TGI [7] of the same compound?
A: > 10 µM

Q: And the TGI [8]?
A: > 10 µM

Q: And the TGI [10]?
A: > 10 µM

Q: What about the TGI [11] of the same compound?
A: > 10 µM

Q: And the TGI [12]?
A: > 10 µM

Q: And the TGI [13]?
A: > 10 µM

Q: What about the TGI [14] of the same compound?
A: > 10 µM

Q: What about the TGI [16] of the same compound?
A: > 10 µM

Q: And the TGI [17]?
A: > 10 µM

Q: What about the TGI [19] of the same compound?
A: > 10 µM

Q: And the TGI [20]?
A: > 10 µM

Q: What about the TGI [21] of the same compound?
A: > 10 µM

Q: What about the TGI [22] of the same compound?
A: > 10 µM

Q: What about the TGI [24] of the same compound?
A: > 10 µM

Q: And the TGI [25]?
A: > 10 µM

Q: And the TGI [26]?
A: > 10 µM

Q: And the TGI [27]?
A: > 10 µM

Q: And the TGI [29]?
A: > 10 µM

Q: What about the TGI [31] of the same compound?
A: > 10 µM

Q: And the TGI [50]?
A: > 10 µM

Q: What about the TGI [33] of the same compound?
A: > 10 µM

Q: And the TGI [35]?
A: > 10 µM

Q: What about the TGI [36] of the same compound?
A: > 10 µM

Q: And the TGI [51]?
A: > 10 µM

Q: And the TGI [52]?
A: > 10 µM

Q: And the TGI [53]?
A: > 10 µM

Q: And the TGI [43]?
A: > 10 µM

Q: What about the TGI [45] of the same compound?
A: > 10 µM
